Consider one compound from ChEMBL document CHEMBL5113483, “Design and synthesis of NAD(P)H: Quinone oxidoreductase (NQO1)-activated prodrugs of 23-hydroxybetulinic acid with enhanced antitumor properties” (Eur J Med Chem, 2022).

Series [1] deals with HT-29. In words: Induction of cell cycle arrest in human HT-29 cells assessed as accumulation of cells at S phase at 1 uM incubated for 48 hrs by RNaeA/propidium iodide based flow cytometry analysis (reference value: 23.06 %). Format: functional.
The test system of series [2] is HT-29. Description: Induction of mitochondrial membrane potential loss in human HT-29 cells assessed as JC-1 monomer formation by measuring increase in green intensity at 1 uM incubated for 48 hrs by JC-1 staining based flow cytometry analysis (reference value: 6.54 %). Format: functional.
Series [3] is described as follows: Toxicity in […] xenografted with human HT-29 cells overexpressing NQO-1 assessed as reduction in body weight at 30 mg/kg, ip administered for 21 days and measured every 2 days. To be noted: in vivo, 504 h, time 21 day. Format: organism-based.
Series [4] relates to HT-29. In words: Induction of apoptosis in human HT-29 cells assessed as upregulation of Bax protein expression incubated for 48 hrs by Western blot analysis. To be noted: dose 1-4 µM, DDE = dose-dependent effect. Format: functional, cell-based.
Series [5] concerns HT-29. In words: Induction of cell cycle arrest in human HT-29 cells assessed as accumulation of cells at G1 phase at 4 uM incubated for 48 hrs by RNaeA/propidium iodide based flow cytometry analysis (reference value: 62.98 %). Format: functional.
Series [6] in a line: Stability of compound in TRIS buffer at pH 7.4 assessed as compound remaining measured after 60 hrs by HPLC analysis. Format: physicochemical. To be noted: read-out: Stability.
In series [7] the test system is HT-29. Description: Induction of apoptosis in human HT-29 cells assessed as late apoptotic cells at 1 uM incubated for 48 hrs by Annexin V-FITC/PI staining based flow cytometry analysis (Rvb= 1.04%). Format: functional.
Series [8] has as its system NCI-H596. In words: Antiproliferative activity against NQO1-deficient human NCI-H596 cells assessed as inhibition of cell growth incubated for 72 hrs by MTT assay. Format: functional, cell-based. To be noted: NCI-H596, 72 h.
The test system of series [9] is HT-29. Description: Induction of apoptosis in human HT-29 cells assessed as dead cells at 2 uM incubated for 48 hrs by Annexin V-FITC/PI staining based flow cytometry analysis (Rvb= 0.01%). Format: functional.
For series [10], the system named is HT-29. In words: Induction of mitochondrial membrane potential loss in human HT-29 cells assessed as JC-1 monomer formation by measuring increase in green intensity at 4 uM incubated for 48 hrs by JC-1 staining based flow cytometry analysis (reference value: 6.54 %). Format: functional.
Series [11] concerns HT-29. Description: Induction of cell cycle arrest in human HT-29 cells assessed as accumulation of cells at G1 phase at 2 uM incubated for 48 hrs by RNaeA/propidium iodide based flow cytometry analysis (reference value: 62.98 %). Format: functional.
The nature of series [12]: Selectivity index, ratio of IC50 for antiproliferative activity against human HT-29 cells overexpressing NQO1 in presence of dicoumarol to antiproliferative activity against human HT-29 cells overexpressing NQO1. Format: functional.

`C=C(C)[C@@H]1CC[C@]2(C(=O)OCCOC(=O)CCC(=O)OCc3cn(C)c4c3C(=O)C(OC)=CC4=O)CC[C@]3(C)[C@H](CC[C@@H]4[C@@]5(C)CC[C@H](O)[C@@](C)(CO)[C@@H]5CC[C@]43C)[C@@H]12`: the Activity is 23.02% in series [1]; 20.83% in series [2]; “Non-Toxic” in series [3]; “Dde” in series [4]; 39.61% in series [5]; 9.81% in series [7]. For the same compound, the Activity in series [9] is reported as 5.03%; in [10], 44.48%; in series [11], 52.73%. Also, the remaining at 60 h in [6] was 80%. In addition, the IC50 in series [8] amounted to 7.78 µM. The “Ratio IC50” value in [12] worked out at 4.9.
